Experimental data published in ChEMBL document CHEMBL4715872, “Soluble Guanylate Cyclase Inhibitors Discovered among Natural Compounds” (J Nat Prod, 2020).
Active and inactive are the calls of the source. The calls are words filed in the database; no cut-off is given here.

Assays:
[1] = Inhibition of human sGC expressed in HUVEC cells assessed as reduction in GMP level incubated for 24 hrs in presence of NPS by ELISA; type: cell-based
[2] = Inhibition of bovine lung sGC assessed as reduction in GMP level incubated for 2 to 12 hrs in presence of NPS by ELISA; type: tissue-based, Bos taurus
HUVEC [3] = assay: Selectivity ratio of IC50 for inhibition of human sGC expressed in HUVEC cells assessed as reduction in GMP level incubated for 2 hrs to human sGC expressed in HUVEC cells assessed as reduction in GMP level incubated for 2 hrs in presence of NPS; type: cell-based
[4] = Inhibition of human sGC expressed in HUVEC cells assessed as reduction in GMP level incubated for 2 hrs by ELISA; type: cell-based
HEPC-CB.1 [5] = assay: Inhibition of angiogenesis in HEPC-CB1 cells assessed as decrease in total length of pseudovessels at 10 uM after 13 hrs by fluorescence inverted microscopic analysis; type: functional, cell-based; conditions: Homo sapiens
HUVEC [6] = assay: Inhibition of human sGC expressed in HUVEC cells assessed as reduction in GMP level at 2 uM in presence of NPS by ELISA relative to control; type: cell-based
HUVEC [7] = assay: Selectivity ratio of inhibition of human sGC expressed in HUVEC cells assessed as reduction in GMP level at 20 uM in presence of NPS to inhibition of human sGC expressed in HUVEC cells assessed as reduction in GMP level at 20 uM in presence of NPS/BAY-412272; type: cell-based
HEPC-CB.1 [8] = assay: Inhibition of angiogenesis in HEPC-CB1 cells assessed as decrease in pseudovessels at 10 uM after 13 hrs by fluorescence inverted microscopic analysis; type: functional, cell-based; conditions: Homo sapiens
HEPC-CB.1 [9] = assay: Inhibition of angiogenesis in HEPC-CB1 cells assessed as decrease in number of closed structures at 10 uM after 13 hrs by fluorescence inverted microscopic analysis; type: functional, cell-based; conditions: Homo sapiens
[10] = Inhibition of bovine lung sGC assessed as reduction in GMP level incubated for 2 hrs in presence of NPS by ELISA; type: tissue-based, Bos taurus
HUVEC [11] = assay: Selectivity ratio of inhibition of human sGC expressed in HUVEC cells assessed as reduction in GMP level at 2 uM in presence of NPS to inhibition of human sGC expressed in HUVEC cells assessed as reduction in GMP level at 2 uM in presence of NPS/BAY-412272; type: cell-based
[12] = Inhibition of human sGC expressed in HUVEC cells assessed as reduction in GMP level incubated for 48 hrs in presence of NPS by ELISA; type: cell-based
HUVEC [13] = assay: Inhibition of full length human sGC expressed in HUVEC cells assessed as increase in oxidation of heme at 20 uM after 2 hrs by spectroscopic analysis; type: cell-based
[14] = Inhibition of bovine lung sGC assessed as reduction in GMP level incubated for 48 hrs in presence of NPS by ELISA; type: tissue-based, Bos taurus
[15] = Inhibition of human sGC expressed in HUVEC cells assessed as reduction in GMP level incubated for 48 hrs by ELISA; type: cell-based
[16] = Inhibition of angiogenesis in HEPC-CB1 cells assessed as decrease in total length of pseudovessels at 10 to 20 uM after 13 hrs by fluorescence inverted microscopic analysis; type: functional, Homo sapiens, HEPC-CB.1; conditions: dose 10-20 µM
[17] = Inhibition of angiogenesis in HEPC-CB1 cells assessed as decrease in number of closed structures at 10 to 20 uM after 13 hrs by fluorescence inverted microscopic analysis; type: functional, Homo sapiens, HEPC-CB.1; conditions: dose 10-20 µM
[18] = Inhibition of angiogenesis in HEPC-CB1 cells assessed as decrease in pseudovessels at 10 to 20 uM after 13 hrs by fluorescence inverted microscopic analysis; type: functional, Homo sapiens, HEPC-CB.1; conditions: dose 10-20 µM
[19] = Inhibition of bovine lung sGC assessed as reduction in GMP level incubated for 2 hrs in presence of BAY-412272 by ELISA; type: tissue-based, Bos taurus
[20] = Inhibition of bovine lung sGC assessed as reduction in GMP level incubated for 2 hrs in presence of NPS/BAY-412272 by ELISA; type: tissue-based, Bos taurus
[21] = Inhibition of human sGC expressed in HUVEC cells assessed as reduction in GMP level incubated for 24 hrs by ELISA; type: cell-based
Bos taurus = organism: Bos taurus; assay: Selectivity ratio of IC50 for inhibition of bovine lung sGC assessed as reduction in GMP level in presence of NPS/BAY-412272 to IC50 for inhibition of bovine lung sGC assessed as reduction in GMP level in presence of NPS; type: tissue-based
[22] = target: T1, Dopamine beta-hydroxylase (Homo sapiens, UniProt P09172); assay: Inhibition of Dopamine beta-hydroxylase (unknown origin) incubated for 10 mins
T1 sequence (P09172 whole entry): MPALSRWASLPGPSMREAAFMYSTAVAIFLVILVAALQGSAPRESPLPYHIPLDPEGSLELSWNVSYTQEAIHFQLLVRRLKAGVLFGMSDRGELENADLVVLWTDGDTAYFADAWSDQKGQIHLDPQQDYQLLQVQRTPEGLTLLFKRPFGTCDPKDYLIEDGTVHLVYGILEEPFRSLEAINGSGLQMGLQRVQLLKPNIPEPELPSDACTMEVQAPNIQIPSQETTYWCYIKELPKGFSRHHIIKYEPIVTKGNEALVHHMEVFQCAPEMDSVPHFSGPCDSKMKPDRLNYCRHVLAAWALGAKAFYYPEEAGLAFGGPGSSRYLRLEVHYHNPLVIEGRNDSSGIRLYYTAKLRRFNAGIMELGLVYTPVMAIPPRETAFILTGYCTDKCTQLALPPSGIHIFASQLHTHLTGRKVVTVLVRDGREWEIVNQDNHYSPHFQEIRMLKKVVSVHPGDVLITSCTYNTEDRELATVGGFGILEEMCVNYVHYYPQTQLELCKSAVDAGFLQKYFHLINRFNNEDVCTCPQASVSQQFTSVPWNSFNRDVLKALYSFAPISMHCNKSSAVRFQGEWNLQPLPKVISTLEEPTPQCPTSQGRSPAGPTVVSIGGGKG

HUVEC [23] = assay: Inhibition of human sGC expressed in HUVEC cells assessed as reduction in GMP level at 20 uM in presence of NPS/BAY-412272 by ELISA relative to control; type: cell-based
[24] = Inhibition of rat small intestine GST using CDNB as substrate by spectrophotometric method; type: tissue-based
Hepatocyte = assay: Cytotoxicity against rat hepatocytes assessed as induction intracellular LDH release incubated for 8 to 24 hrs; type: cell-based
HEPC-CB.1 [25] = assay: Inhibition of angiogenesis in HEPC-CB1 cells assessed as decrease in pseudovessels at 20 uM after 13 hrs by fluorescence inverted microscopic analysis; type: functional, cell-based; conditions: Homo sapiens
[26] = Inhibition of Yersinia pestis FabZ
[27] = Inhibition of Francisella tularensis FabZ
HEPC-CB.1 [28] = assay: Inhibition of angiogenesis in HEPC-CB1 cells assessed as decrease in total length of pseudovessels at 20 uM after 13 hrs by fluorescence inverted microscopic analysis; type: functional, cell-based; conditions: Homo sapiens
HEPC-CB.1 [29] = assay: Inhibition of angiogenesis in HEPC-CB1 cells assessed as decrease in number of closed structures at 20 uM after 13 hrs by fluorescence inverted microscopic analysis; type: functional, cell-based; conditions: Homo sapiens

## COc1c(O)c2c(=O)cc(OC)c3c4c(OC)cc(O)c5c(=O)c(OC)c6c(c(c1[C@H](C(C)=O)[C@](C)(O)C6)c23)c54
[1]
  IC50: 1500 nM
[2]
  IC50: 1500 nM
HUVEC [3]
  Ratio IC50: 2
[4]
  IC50: 800 nM
HEPC-CB.1 [5]
  inhibition: Active
HUVEC [6]
  inhibition: < 95%
HUVEC [7]
  Ratio IC50: 2
HEPC-CB.1 [8]
  inhibition: Active
HEPC-CB.1 [9]
  inhibition: Active
[10]
  IC50: 1500 nM
HUVEC [11]
  Ratio IC50: 3

## O=C1C(O)=C(O)C(=O)c2c(O)c(Cl)cc(O)c21
[12]
  IC50: 13000 nM
HUVEC [13]
  inhibition: inactive
[14]
  IC50: 3000 nM
[15]
  IC50: 12000 nM

## O=C1C(O)=C(O)C(=O)c2c(O)ccc(O)c21
[12]
  IC50: 10000 nM
HUVEC [13]
  inhibition: inactive
[16]
  fold change (FC): 2
[14]
  IC50: 5000 nM
[17]
  fold change (FC): 2
[15]
  IC50: 12000 nM
[18]
  fold change (FC): 2

## CC(=O)OC1=C(O)C(=O)c2c(OC(C)=O)ccc(OC(C)=O)c2C1=O
[19]
  IC50: 1400 nM
[20]
  IC50: 1000 nM
HUVEC [13]
  inhibition: Active
[1]
  IC50: 28000 nM
[2]
  IC50: 200 nM
[21]
  IC50: 29000 nM
Bos taurus
  Ratio IC50: 2
[10]
  IC50: 500 nM

## Cc1cc(O)c2c(=O)c3c(O)cc(O)c4c5c(O)cc(O)c6c(=O)c7c(O)cc(C)c8c1c2c(c34)c(c78)c65 [HYPERICIN]
[19]
  IC50: 320 nM
[22]
  IC50: 21000 nM
HUVEC [23]
  inhibition: Active
[20]
  IC50: 350 nM
[1]
  IC50: 700 nM
[2]
  IC50: 200 nM
HUVEC [3]
  Ratio IC50: 2
[4]
  IC50: 400 nM
HEPC-CB.1 [5]
  inhibition: Active
HUVEC [6]
  inhibition: < 95%
HEPC-CB.1 [8]
  inhibition: Active
[24]
  Ki: 200 nM
HEPC-CB.1 [9]
  inhibition: Active
[10]
  IC50: 400 nM
HUVEC [11]
  Ratio IC50: 3

## COc1cc(C)c2c(c1C=O)Oc1c(c(C)c(O)c3c1C(O)OC3=O)OC2=O (configuration not stated) [STICTIC ACID]
Hepatocyte
  IC50: ≤ 13000 nM
[19]
  IC50: 2600 nM
HEPC-CB.1 [25]
  inhibition: Active
[20]
  IC50: 2500 nM
HUVEC [13]
  inhibition: inactive
[1]
  IC50: 47000 nM
[26]
  IC50: 13000 nM
[2]
  IC50: 200 nM
[27]
  IC50: 13000 nM
[21]
  IC50: 44000 nM
HEPC-CB.1 [28]
  inhibition: Active
Bos taurus
  Ratio IC50: 2
[10]
  IC50: 300 nM
HEPC-CB.1 [29]
  inhibition: Active

## COc1cc(C/C=C/c2ccccc2)c(OC)cc1O [VIOLASTYRENE]
[19]
  IC50: 4900 nM
[20]
  IC50: 1800 nM
HUVEC [13]
  inhibition: Active
[1]
  IC50: 16000 nM
[2]
  IC50: 800 nM
[21]
  IC50: 16000 nM
Bos taurus
  Ratio IC50: 2
[10]
  IC50: 800 nM
